Test results from patent US20250221930A1, “A COMPOSITION COMPRISING LIPID NANOPARTICLES AND AN ANTIFUNGAL POLYENE” (INSTITUT NATIONAL DE LA SANTÉ ET DE LA RECHERCHE MÉDICALE, priority 2022, published 2025).

Tests used:
Format in all cases: cell-based
Lichtheimia ramosa [1] = test: MIC of AmB in solution with blank lipid nanoparticles (BLNPs), EUCAST broth microdilution; conditions: AmB in solution in RPMI, without PEG15HS LNPs
Procedure: MICs for each fungi were measured in the presence of different concentrations of AmB (solubilized in the LNP suspensions or loaded in the LNP) as described by the EUCAST broth microdilution antifungal susceptibility test methodology (EUCAST DEFINITIVE DOCUMENT E.Def 9.3.2 Apr. 2020. EUCAST antifungal MIC method for mould).
A clinical isolate of Lichtheimia ramosa was used. Isolate were subcultured from frozen stocks (−80° C.) on 75 cm^3 flasks containing 15 ml of Sabouraud dextrose agar (Sigma-Aldrich, St. Quentin Fallavier, France) during 3 days at 37° C. Spores were collected by flooding the flask with 10 mL of sterile water. The suspensions were filtered on nylon filter (Millipore, Carrigtwohill, Ireland) with pore size of 11 μm to remove hyphal elements. The concentration of the spore suspensions was then adjusted in sterile water to obtain inocula of 2×10^5 spores/mL.
The MIC of the formulations for Lichtheimia ramosa was assayed.

[2] = system: Twelve clinical isolates of Mucorales; test: Checkerboard AmB MIC with surfactant in solution, statements over all isolates
Procedure: Twelve clinical isolates of Mucorales identified by ARNr sequencing were used: Rhizopus arrhizus (5), Rhizopus microsporus (1), Lichtheimia corymbifera (3), Lichtheimia ramosa (1), Mucor circinelloides (1), Rhizomucor pusillus (1). Isolates were subcultured from frozen stocks (−80° C.) on 75 cm^3 flasks containing 15 mL of Sabouraud dextrose agar (Sigma-Aldrich, St. Quentin Fallavier, France) during 3 days at 37° C. Spores were collected by flooding the flask with 10 ml of sterile water. The suspensions were filtered on nylon filter (Millipore, Carrigtwohill, Ireland) with pore size of 11 μm to remove hyphal elements. The concentration of the spore suspensions was then adjusted in sterile water to obtain inocula of 2×10^5 spores/mL. […]
AmB minimum inhibitory concentrations (MIC) of each strain of Mucorales was measured in RPMI the presence of different concentrations of surfactant as described by the EUCAST broth microdilution antifungal susceptibility test methodology with modification for the checkerboard procedure. […]
In equation 1, MIC0 refers to the AmB MIC measured without surfactants and MIC∞ is the lowest AmB MIC measured in the presence of surfactant. The maximal ratio in AmB MIC decrease defined as maximal efficacy (Emax) was calculated as the ratio of MIC0/MIC∞. […] These parameters were evaluated using WinNonlin software (version 6.2, Certara, NJ, USA) as described by Chauzy et al.

Rhizopus microsporus = test: Checkerboard AmB MIC with surfactant in solution, inhibitory Emax model; conditions: R. microsporus
Procedure: (§1) Twelve clinical isolates of Mucorales identified by ARNr sequencing were used: Rhizopus arrhizus (5), Rhizopus microsporus (1), Lichtheimia corymbifera (3), Lichtheimia ramosa (1), Mucor circinelloides (1), Rhizomucor pusillus (1). Isolates were subcultured from frozen stocks (−80° C.) on 75 cm^3 flasks containing 15 mL of Sabouraud dextrose agar (Sigma-Aldrich, St. Quentin Fallavier, France) during 3 days at 37° C. Spores were collected by flooding the flask with 10 ml of sterile water. The suspensions were filtered on nylon filter (Millipore, Carrigtwohill, Ireland) with pore size of 11 μm to remove hyphal elements. The concentration of the spore suspensions was then adjusted in sterile water to obtain inocula of 2×10^5 spores/mL.
(§2) AmB powder (Sigma-Aldrich) was dissolved in dimethyl sulfoxide to get a stock solution at 8192 mg/L stored at −80° C. for six months. On the day of use, AmB and freshly made surfactant solutions (in RPMI or PBS) were diluted in the same medium (RPMI or PBS) to obtain desired concentrations. Surfactants used (polyethylene glycol (15)-hydroxystearate (also named Solutol® HS15 or Kolliphor® HS 15, or Macrogol 15 Hydroxystearate); polyoxyethylene (10) stearyl ether (Brij® S10); polyoxyethylene (20) stearyl ether (Brij® S20); polyoxyethylene (20) oleyl ether (Brij® 020); and polyoxyethylene (10) cetyl ether (Brij® C10)), which have their chemical structure presented in FIG. 7, were purchased from Sigma-Aldrich.
(§3) AmB minimum inhibitory concentrations (MIC) of each strain of Mucorales was measured in RPMI the presence of different concentrations of surfactant as described by the EUCAST broth microdilution antifungal susceptibility test methodology with modification for the checkerboard procedure. Checkerboards were performed by adding 100 μL of two-fold dilutions of AmB (0.008 to 4 mg/L) and surfactant solutions (0.04 to 2752 mg/L) in 96 well plates. One hundred microliters of a spore suspension at a concentration of 105 spores/mL were added to the wells, and the plates were incubated for 24 h at 37° C. […] Three experiments were performed for each strain.
(§4) An inhibitory Emax model (Equation 1) developed by Chauzy et al. (Chauzy, A.; Buyck, J.; de Jonge, B. L. M.; Marchand, S.; Grégoire, N.; Couet, W. Pharmacodynamic Modelling of β-Lactam/β-Lactamase Inhibitor Checkerboard Data: Illustration with Aztreonam-Avibactam. Clin. Microbiol. Infect. 2019, 25, 515.e1-515.e4, doi: 10.1016/j.cmi.2018.11.025) to evaluate the enhancing effect of non-antibiotics molecules on the efficacy of antibiotic against bacteria was used here to describe the average decrease in AmB MIC values (MICsurf) against various Mucorales strains in relation to surfactant concentrations (Csurf).
(§5) In equation 1, MIC0 refers to the AmB MIC measured without surfactants and MIC∞ is the lowest AmB MIC measured in the presence of surfactant. The maximal ratio in AmB MIC decrease defined as maximal efficacy (Emax) was calculated as the ratio of MIC0/MIC∞. EC50 is the concentration of surfactant producing 50% of the Emax and characterizes the potency of the surfactants. These parameters were evaluated using WinNonlin software (version 6.2, Certara, NJ, USA) as described by Chauzy et al.

Lichtheimia ramosa [3] = test: as above; conditions: L. ramosa
Procedure: as §1, §2, §3, §4, §5

Mucor circinelloides = test: as above; conditions: M. circinelloides
Procedure: as §1, §2, §3, §4, §5

Rhizomucor pusillus = test: as above; conditions: R. pusillus
Procedure: as §1, §2, §3, §4, §5

Rhizopus arrhizus = test: as above
Procedure: as §1, §2, §3, §4, §5

Lichtheimia corymbifera = test: as above
Procedure: as §1, §2, §3, §4, §5

How did the “MIC of AmB” value (Lichtheimia ramosa [1]) turn out when C[C@@H]1[C@H](O)[C@@H](C)/C=C/C=C/C=C/C=C/C=C/C=C/C=C/[C@H](O[C@@H]2O[C@H](C)[C@@H](O)[C@H](N)[C@@H]2O)C[C@@H]2O[C@](O)(C[C@@H](O)C[C@@H](O)[C@H](O)CC[C@@H](O)C[C@@H](O)CC(=O)O[C@H]1C)C[C@H](O)[C@H]2C(=O)O [AmB, amphotericin B] was run?
The value was 0.5 µg/mL.

What about the “MIC (agent alone)” value [2] of the same compound?
Its value is “less than 1 mg/L”.

What about the “MIC0 (MIC of AmB in the absence of surfactant)” value (“MIC0” below) (Rhizopus microsporus) of the same compound?
Its value is 0.68 µg/mL.

And the “MIC0” value (Lichtheimia ramosa [3])?
The value was 0.51 µg/mL.

And the “MIC0” value (Mucor circinelloides)?
The value was 0.19 µg/mL.

And the “MIC0” value (Rhizomucor pusillus)?
Its value is 0.25 µg/mL.

And the “MIC0” value (Rhizopus arrhizus; R. arrhizus 1)?
Its value is 0.28 µg/mL.

What about the “MIC0” value (Rhizopus arrhizus; R. arrhizus 2) of the same compound?
The value was 0.44 µg/mL.

And the “MIC0” value (Rhizopus arrhizus; R. arrhizus 3)?
Its value is 0.59 µg/mL.

What about the “MIC0” value (Rhizopus arrhizus; R. arrhizus 4) of the same compound?
Its value is 0.61 µg/mL.

And the “MIC0” value (Rhizopus arrhizus; R. arrhizus 5)?
Its value is 0.35 µg/mL.

And the “MIC0” value (Lichtheimia corymbifera; L. corymbifera 1)?
Its value is 0.36 µg/mL.

What about the “MIC0” value (Lichtheimia corymbifera; L. corymbifera 2) of the same compound?
Its value is 0.06 µg/mL.

And the “MIC0” value (Lichtheimia corymbifera; L. corymbifera 3)?
The value was 0.25 µg/mL.
